Measured values reported in patent US6358885B1, “Substituted phenylheterocyclic herbicides” (Mississippi State University, priority 1992, dated 2002).

Legend:
Experiment in all cases: Test B preemergence/postemergence greenhouse plant response rating 0 to 10
[1] = tested on: rice; format: in vivo, Oryza sativa; conditions: 0 to 10 scale
Outline: (§1)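 Postemergence treatment of plants two to eighteen cm tall ran alongside preemergence treatment of planted seed, each using compound in a non-phytotoxic solvent.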

[2] = tested on: lambsquarters; format: in vivo, Chenopodium album; conditions: 0 to 10 scale
Outline: as §1

[3] = tested on: purple nutsedge; format: in vivo, Cyperus rotundus; conditions: 0 to 10 scale
Outline: as §1

[4] = tested on: soybean; format: in vivo, Glycine max; conditions: 0 to 10 scale
Outline: as §1

[5] = tested on: rape; format: in vivo, Brassica napus; conditions: 0 to 10 scale
Outline: as §1

[6] = tested on: crabgrass; format: in vivo, Digitaria spp.; conditions: for Plant response rating, Crabgrass: 0 to 10 scale
Outline: as §1

[7] = tested on: blackgrass; format: in vivo, Alopecurus myosuroides; conditions: for Plant response rating, Blackgrass: 0 to 10 scale
Outline: as §1

[8] = tested on: barley; format: in vivo, Hordeum vulgare; conditions: for Plant response rating, Barley: 0 to 10 scale
Outline: as §1

[9] = tested on: cocklebur; format: in vivo, Xanthium pensylvanicum; conditions: for Plant response rating, Cocklebur: 0 to 10 scale
Outline: as §1

[10] = tested on: bedstraw; format: in vivo, Galium aparine; conditions: for Plant response rating, Bedstraw: 0 to 10 scale
Outline: as §1

[11] = tested on: sugar beet; format: in vivo, Beta vulgaris; conditions: 0 to 10 scale
Outline: as §1

`CCCOc1cc(-c2nn3c(c2Cl)CCCC3)c(F)cc1Cl` [Compound 23] was tested, and the “Plant response rating, Rice” value ([1]; POSTEMERGENCE, Rate 50 g/ha) was 4, the “Plant response rating, Rice” value ([1]; POSTEMERGENCE, Rate 200 g/ha) was 6 and the “Plant response rating, Rice” value ([1]; PREEMERGENCE, Rate 50 g/ha) was 0. The “Plant response rating, Rice” value ([1]; Rate 200 g/ha, PREEMERGENCE) was 2, the “Plant response rating, Lambsquarter” value ([2]; POSTEMERGENCE, Rate 50 g/ha) was 10 and the “Plant response rating, Lambsquarter” value ([2]; POSTEMERGENCE, Rate 200 g/ha) was 10. The “Plant response rating, Lambsquarter” value ([2]; PREEMERGENCE, Rate 50 g/ha) was 10, the “Plant response rating, Lambsquarter” value ([2]; Rate 200 g/ha, PREEMERGENCE) was 10 and the “Plant response rating, Nutsedge” value ([3]; POSTEMERGENCE, Rate 50 g/ha) was 2. For the same molecule, the “Plant response rating, Nutsedge” value ([3]; POSTEMERGENCE, Rate 200 g/ha) was 3, the “Plant response rating, Nutsedge” value ([3]; PREEMERGENCE, Rate 50 g/ha) was 0 and the “Plant response rating, Nutsedge” value ([3]; Rate 200 g/ha, PREEMERGENCE) was 0. For the same molecule, the “Plant response rating, Soybean” value ([4]; POSTEMERGENCE, Rate 50 g/ha) was 8, the “Plant response rating, Soybean” value ([4]; POSTEMERGENCE, Rate 200 g/ha) was 9 and the “Plant response rating, Soybean” value ([4]; PREEMERGENCE, Rate 50 g/ha) was 1. For the same molecule, the “Plant response rating, Soybean” value ([4]; Rate 200 g/ha, PREEMERGENCE) was 7, the “Plant response rating, Rape” value ([5]; POSTEMERGENCE, Rate 50 g/ha) was 6 and the “Plant response rating, Rape” value ([5]; POSTEMERGENCE, Rate 200 g/ha) was 10. For the same molecule, the “Plant response rating, Rape” value ([5]; PREEMERGENCE, Rate 50 g/ha) was 3, the “Plant response rating, Rape” value ([5]; Rate 200 g/ha, PREEMERGENCE) was 6 and the “Plant response rating (0 to 10 scale), Crabgrass” value ([6]; POSTEMERGENCE, Rate 50 g/ha) was 2. For the same molecule, the “Plant response rating, Crabgrass” value ([6]; POSTEMERGENCE, Rate 200 g/ha) was 6, the “Plant response rating, Crabgrass” value ([6]; PREEMERGENCE, Rate 50 g/ha) was 2 and the “Plant response rating, Crabgrass” value ([6]; Rate 200 g/ha, PREEMERGENCE) was 9. The “Plant response rating (0 to 10 scale), Blackgrass” value ([7]; POSTEMERGENCE, Rate 50 g/ha) was 6, the “Plant response rating, Blackgrass” value ([7]; POSTEMERGENCE, Rate 200 g/ha) was 6 and the “Plant response rating, Blackgrass” value ([7]; PREEMERGENCE, Rate 50 g/ha) was 6. For the same molecule, the “Plant response rating, Blackgrass” value ([7]; Rate 200 g/ha, PREEMERGENCE) was 7, the “Plant response rating (0 to 10 scale), Barley” value ([8]; POSTEMERGENCE, Rate 50 g/ha) was 3 and the “Plant response rating, Barley” value ([8]; POSTEMERGENCE, Rate 200 g/ha) was 3. For the same molecule, the “Plant response rating, Barley” value ([8]; PREEMERGENCE, Rate 50 g/ha) was 0, the “Plant response rating, Barley” value ([8]; Rate 200 g/ha, PREEMERGENCE) was 0 and the “Plant response rating (0 to 10 scale), Cocklebur” value ([9]; POSTEMERGENCE, Rate 50 g/ha) was 8. The “Plant response rating, Cocklebur” value ([9]; POSTEMERGENCE, Rate 200 g/ha) was 10, the “Plant response rating, Cocklebur” value ([9]; PREEMERGENCE, Rate 50 g/ha) was 0 and the “Plant response rating, Cocklebur” value ([9]; Rate 200 g/ha, PREEMERGENCE) was 8. The “Plant response rating (0 to 10 scale), Bedstraw” value ([10]; POSTEMERGENCE, Rate 50 g/ha) was 7, the “Plant response rating, Bedstraw” value ([10]; POSTEMERGENCE, Rate 200 g/ha) was 9 and the “Plant response rating, Bedstraw” value ([10]; PREEMERGENCE, Rate 50 g/ha) was 5. The “Plant response rating, Bedstraw” value ([10]; Rate 200 g/ha, PREEMERGENCE) was 5, the “Plant response rating, Sugar beet” value ([11]; POSTEMERGENCE, Rate 50 g/ha) was 10 and the “Plant response rating, Sugar beet” value ([11]; POSTEMERGENCE, Rate 200 g/ha) was 10. For the same molecule, the “Plant response rating, Sugar beet” value ([11]; PREEMERGENCE, Rate 50 g/ha) was 9 and the “Plant response rating, Sugar beet” value ([11]; Rate 200 g/ha, PREEMERGENCE) was 10.
